{
  "source": "paper PMC8279416",
  "about": "“Structural Fine-Tuning of Desmuramylpeptide NOD2 Agonists Defines Their In Vivo Adjuvant Activity” (Journal of Medicinal Chemistry, 2021)",
  "key": {"human PBMCs": {"tested_on": "human PBMCs", "assay": "Cytokine release from peripheral blood mononuclear cells (cytometric bead array)", "type": "cell-based", "settings": "2 μM, 18 h, without LPS", "method": "The immunostimulatory effects of the selected desmuramylpeptides were evaluated using human primary peripheral blood mononuclear cells (PBMCs). This heterogeneous mixture of immune cells allowed the study of the effects of these NOD2 agonists in a physiologically relevant system, where other NOD2-interacting and downstream signaling proteins were present. The effects of desmuramylpeptides were first determined for the secreted cytokine profile using a cytometric bead array cytokine kit. Moreover, considering that activation of NOD2 is also an important amplification signal for Toll-like receptor (TLR)-induced inflammatory responses,[79]−[81] we also examined the effects on cytokine secretion of the combination of desmuramylpeptides with LPS, a well-known TLR4 agonist.\nIn line with previous studies, the effects of MDP and the desmuramylpeptides were most pronounced for the induction of the chemokine IL-8.[82]\nPeripheral blood mononuclear cells were seeded (1 × 10^6 cells/mL) in 48-well plates in 500 μL of growth medium and treated with the compounds (2 μM) or with the corresponding vehicle (0.1% DMSO) in the absence and presence of LPS (10 ng/mL). Cell-free supernatants were collected after 18 h of incubation (37 °C, 5% CO2) and stored at −80 °C until tested. Cytokine production was determined with the BD Cytometric Bead Array Human Inflammatory Cytokines Kit (contents: IL-8, IL-1β, IL-6, IL-10, TNF, IL-12p70; BD Bioscience) on an Attune NxT flow cytometer (Thermo Fisher Scientific, Waltham, MA, U.S.A.). Standard curves were generated using recombinant cytokines contained in the kit. The data were analyzed using the FlowJo (Tree Star, Inc., Ashland, OR, U.S.A.) and Prism (GraphPad, San Diego, CA, U.S.A.) software. The experiments were repeated as four independent biological replicates. Statistical significance was determined by repeated measures one-way ANOVA followed with Dunnett’s multiple comparisons test."}, "NIH/OlaHsd mice": {"tested_on": "NIH/OlaHsd mice", "assay": "In vivo ovalbumin-specific antibody response, first experiment (neutral liposomes)", "parameters": "species or system mouse", "settings": "for Log10 (anti-OVA IgG1/anti-OVA IgG2a): first in vivo experiment, one week after the booster dose, mean ± SEM of 5 mice; for Boost in the elicited ovalbumin-specific IgG response: vs liposomes without adjuvant", "method": "To determine whether enhanced antigen presentation in vitro is correlated to in vivo adjuvant activities, an immunization study was performed in a murine model of adjuvanticity. Specifically, the selected desmuramylpeptides were investigated for induction of systemic immune responses against the model antigen ovalbumin. Seven groups of NIH/OlaHsd mice were immunized with ovalbumin-containing neutral liposomes, either alone or with additional adjuvants of MDP or the desmuramylpeptides 1, 68, 74, 75, or 81. After immunization and one booster dose, the mice sera were collected and assayed for ovalbumin-specific IgG antibodies (Figure 10).\nMultilamellar liposomes were prepared by the modified thin lipid film method as described previously.[130],[131] For the preparation of neutral liposomes, a 7:5 molar ratio of egg-phosphatidylcholine and cholesterol was used. For the preparation of negatively charged liposomes, a 7:5:1 molar ratio of egg-phosphatidylcholine, cholesterol, and dicetylphosphate was used, while a 7:5:0.5 molar ratio of egg-phosphatidylcholine, cholesterol, and Man-PEG-Pam was used in the preparation of mannosylated liposomes. Lipids (total lipid concentration, 4 mg/mL) were dissolved in chloroform/methanol (2:1). A methanol or chloroform/methanol solution of MDP or the desmuramylpeptides was added to the lipid solution for a final concentration of 2 mM and 1.5 mM for the first (Figure 10) and second (Figure 11) experiments, respectively. After rotary evaporation of the solvent, the remaining lipid film was dried in vacuum for 1 h and then dispersed by gentle handshaking in an ovalbumin solution in saline (0.0667 and 0.1 mg/mL for the first and second experiments, respectively). This was then left overnight at 4 °C to swell and stabilize. Liposome size was reduced by sonification. Nonentrapped material was not separated from liposomes, and the complete liposome suspension was used for immunizations.\nFor the first experiment (Figure 10), sex-matched NIH/OlaHsd mice (five per group) were immunized subcutaneously in the tail base and boosted one time after 21 days. The injection volume in all experimental groups was 0.15 mL per mouse, which corresponds to 10 μg of OVA, […], and 0.30 μmol of MDP and desmuramylpeptides. For the second experiment (Figure 11), sex-matched NIH/OlaHsd mice (five per group) were immunized and boosted two times subcutaneously into the tail base at 21-day intervals. The injection volume in all experimental groups was 0.1 mL per mouse, which corresponds to 10 μg of OVA, 400 μg of lipids, and 0.15 μmol of MDP and 75. The mice were anesthetized with ip application of ketamine/xylazine (25 mg/kg each) prior to blood collection from the axillary plexus on the seventh day after the last booster dose. Individual serum from each animal was decomplemented at 56 °C for 30 min and then stored at −20 °C until tested.\nELISA assays were performed as detailed previously.[46] Briefly, high-binding ELISA plates (Costar, U.S.A.) were coated with a 15 μg/mL solution of ovalbumin in carbonate buffer, pH 9.6, and incubated overnight at room temperature. Nonspecific antibody binding was blocked with 0.5% w/v bovine serum albumin in PBS-T (0.05% (v/v) Tween 20 in phosphate-buffered saline) for 2 h at 37 °C. After washing, five serial dilutions of mice sera and standard preparations were added in duplicate. Plates were incubated overnight at room temperature, washed, and analyzed for ovalbumin-specific IgG levels by incubation with HRP-conjugated goat anti-mouse IgG (2 h at 37 °C) and then, after washing, with 0.6 mg/mL o-phenylenediaminedihydrochloride solution in citrate-phosphate buffer, pH 5.0, with 0.5 μL of 30% H2O2 per milliliter for 30 min at room temperature in the dark. The enzymatic reaction was stopped with 12.5% H2SO4, and absorbance at 492 nm was measured using a microplate reader (Thermo Fisher Scientific, Waltham, MA, U.S.A.). […]"}, "[1]": {"settings": "neutral liposomes, 0.30 μmol adjuvant per dose, 1 week after booster"}, "[2]": {"settings": "neutral liposomes, 0.30 μmol adjuvant per dose, s.c., 1 week after booster"}},
  "data": [
    {"smiles": "CCCCCCCCCCCCCCCCCC(=O)Oc1ccc(/C=C/C(=O)NCC(=O)N[C@H](C(=O)N[C@H](CCC(=O)OCC)C(=O)OCC)[C@@H](C)O)cc1OC", "note": "[Compound 81, Diethyl ((E)-3-(3-Methoxy-4-(stearoyloxy)phenyl)acryloyl)glycyl-L-threonyl-D-glutamate]", "values": [
      {"measurement": "Induction of cytokines IL-1β, IL-6, IL-8 and TNF-α, compound alone", "setting": "human PBMCs", "value": "induced lower responses"},
      {"measurement": "Log10 (anti-OVA IgG1/anti-OVA IgG2a)", "setting": "NIH/OlaHsd mice", "value": "2.18 ± 0.24"},
      {"measurement": "Ovalbumin-specific IgG1 response (in words)", "setting": "NIH/OlaHsd mice; [1]", "value": "largely IgG1-based response"},
      {"measurement": "Boost in the elicited ovalbumin-specific IgG response", "setting": "NIH/OlaHsd mice; [2]", "value": 3, "unit": "fold"}
    ]},
    {"smiles": "COc1cc(/C=C/C(=O)NCC(=O)N[C@H](C(=O)N[C@H](CCC(=O)OC2CCCC2)C(=O)OC2CCCC2)C(C)C)ccc1O", "note": "[Compound 68, Dicyclopentyl ((E)-3-(4-Hydroxy-3-methoxyphenyl)acryloyl)glycyl-L-valyl-D-glutamate]", "values": [
      {"measurement": "Induction of cytokines IL-1β, IL-6, IL-8 and TNF-α, compound alone", "setting": "human PBMCs", "value": "induced small increases in the levels of all four of these cytokines"},
      {"measurement": "Log10 (anti-OVA IgG1/anti-OVA IgG2a)", "setting": "NIH/OlaHsd mice", "value": "2.28 ± 0.13"},
      {"measurement": "Ovalbumin-specific IgG2a response (in words)", "setting": "NIH/OlaHsd mice; [1]", "value": "slight suppression of the IgG2a response"},
      {"measurement": "Adjuvant activity: ovalbumin-specific IgG (in words)", "setting": "NIH/OlaHsd mice; [2]", "value": "devoid of adjuvant activity"}
    ]},
    {"smiles": "CCCCCCCCCCCCCCCCCC(=O)Oc1ccc(/C=C/C(=O)NCC(=O)N[C@H](C(=O)N[C@H](CCC(=O)OCC)C(=O)OCC)C(C)C)cc1OC", "note": "[Compound 75, Diethyl ((E)-3-(3-Methoxy-4-(stearoyloxy)phenyl)acryloyl)glycyl-L-valyl-D-glutamate]", "values": [
      {"measurement": "Induction of cytokines IL-1β, IL-6, IL-8 and TNF-α, compound alone", "setting": "human PBMCs", "value": "induced lower responses"},
      {"measurement": "Log10 (anti-OVA IgG1/anti-OVA IgG2a)", "setting": "NIH/OlaHsd mice", "value": "2.07 ± 0.17"},
      {"measurement": "Ovalbumin-specific IgG1 response (in words)", "setting": "NIH/OlaHsd mice; [1]", "value": "significantly enhanced"},
      {"measurement": "Ovalbumin-specific IgG2a response (in words)", "setting": "NIH/OlaHsd mice; [1]", "value": "highest levels of IgG2a antibodies"},
      {"measurement": "Boost in the elicited ovalbumin-specific IgG response", "setting": "NIH/OlaHsd mice; [2]", "value": 5, "unit": "fold"}
    ]}
  ]
}
